Measurements published in patent publication US8552058B2, “Application of L-n-butylphthalide in preventing and treating dementia” (CSPC Zhongqi Pharmaceutical Technology (Shijazhuang) Co., …, priority 2004, dated 2013).
“Also recorded” adds a separate entry of the source.

Legend:
Type in all cases: in vivo, Wistar rats
[1] = tested on: Superoxide dismutase (SOD); assay: SOD activity in cortex and hippocampus of hypoperfused (2-VO) rats; details: 10 mg/kg
malondialdehyde (MDA) = assay: MDA content in cortex and hippocampus of hypoperfused (2-VO) rats; details: 10 mg/kg
[2] = tested on: choline acetyltransferase (ChAT); assay: ChAT activity in cortex and hippocampus of hypoperfused (2-VO) rats; details: 10 mg/kg
[3] = tested on: neurons, substantia alba of optic tracts and GFAP-positive astrocytes in brain; assay: Pathological and immunohistochemical detection (H-E, K-B, GFAP staining) in 2-VO rats
Experimental: Male Wistar rats, which were 10-weeks old and weighed approximately 280 grams, were used. 5 animals were placed in each cage, while the room temperature was kept at 23° C., with food and water freely accessible. Rats were anaesthetized with sodium pentobarbital (40 mg/kg), then bilateral common carotid arteries were exposed and the envelope of common carotid arteries and vagus nerve was carefully separated. For the hypoperfusion model group, bilateral common carotid arteries were ligated with 5-0 silk thread. For the sham surgery group, the same operation was conducted but with no ligation of bilateral common carotid arteries. A little of sterile crystalline sulfanilamide powder was applied on the wound after the surgery, then the skin was sutured. One month after the surgery, water maze and step-through test were performed. Rats were randomly assigned into 8 groups, with 10 animals per group. 1) sham surgery group: the same operation as that in hypoperfusion group was conducted but without ligation of bilateral common carotid arteries; 2) solvent control group: only vegetable oil was orally administered; 3) DL-NBP 10 mg/kg group; 4) DL-NBP 30 mg/kg group; 5) L-NBP 10 mg/kg group; 6) L-NBP 30 mg/kg group; 7) D-NBP 30 mg/kg group; Respective medicines or solvent were drenched since the 10th day after the surgery. Water maze experiments were performed on the 29-33rd days since the surgery, while step-through tests were performed on the 34-35th days since the surgery. Animals were killed for biochemical assay or pathological examination on the 36th day. In all the ethological tests, medicines were administered 40 minutes prior to respective test. 4-6 animals were chosen from each group randomly. After the ethological experiments, rats were anaesthetized with pentobarbital (100 mg/kg ip). Animal's skin and thorax was sequentially cut open and the heart was sufficiently exposed. Left tip of the heart was cut open, a perfusion needle was inserted along the aorta. After clamping with hemostat, physiological saline was infused. […]

[4] = tested on: rats with continuous perfusion of Aβ (1-40) into lateral ventricle; assay: Morris' water maze and working memory test after continuous i.c.v. perfusion of Aβ (1-40); details: for search strategy after 5 days of training / latency after 5 days of training: Aβ (1-40) i.c.v. rats; for latency after 5 days of training: mean±standard error, model 30.18±4.81, sham 13.02±2.77, p<0.05 vs model
Experimental: For Morris' Water Maze Automatic Monitor and experimental protocols, reference may be made to the experiments of learning and memory damage of rats induced by brain hypoperfusion.
(§1) Male Wistar rats, which were 10-weeks old and weighed approximately 280 grams, were used. One animal was placed in one cage, while the room temperature was kept at 23° C., with food and water freely accessible. Rats were anaesthetized with sodium pentobarbital (40 mg/kg), and were fixed to stereotaxic apparatus with the position of ventral decubitus. Head skin was cut open, a cannula for Aβ (1-40) perfusion was implanted into right ventricle. According to the stereotaxic profile of rat brain by Paxions and Watson, the implantation site was located 0.3 mm behind and 1.1 mm in the right side of anterior fontanelle, with the depth of 4.0 mm. The cannula was connected to a micro-osmotic pump. The pump was placed on the back of the rat. Aβ (1-40) was dissolved in 35% acetonitrile/0.1% trifluroacetic acid, and was continuously perfused intracerebroventricularly (i.c.v.) at 300 pmol/day, while only the solvent (35% acetonitrile/0.1% trifluroacetic acid) was perfused in the control group.
(§2) Rats were randomly classified into […] groups, with 10 animals per group. 1) the sham surgery group: only 35% acetonitrile/0.1% trifluroacetic acid+solvent was perfused into the ventricles of the rats; 2) the model group: Aβ (1-40)+solvent; 3) Aβ (1-40)+L-NBP 10 mg/kg group; 4) Aβ (1-40)+L-NBP 30 mg/kg group. Respective drug or solvent was drenched since the 2nd day after the surgery. The water maze experiment was performed on the 9-13 day after the surgery, while the platform exploration experiment was performed on the 13th day, and the working memory test was performed on the 14-16th days. Animals were decapitated to remove brains for biochemical assay on the 17th day. In all ethological tests, medicines were administered 40 minutes prior to the respective test.
The water maze training experiment was performed on the 9-13th day after icv Aβ (1-40), and the platform exploration experiment was performed on the 13 day after that. The working memory test was performed on the 14-16th day after icv Aβ (1-40) (see the figure above), which investigated the ability of rapid learning and spatial memory in animals when the platform and quadrant were changed, based on the fact that animals had memorized in some extent after training and platform exploration experiment. Experimental procedure was similar to the standard water maze training experiment except that the platform's location was changed every day. The experiment was conducted five times every day, allowing the rats to start swimming from five water-entry sites respectively. […] In the following 4 experiments, the location of the platform was kept constant, yet the water entry sites were within different quadrants. The latency of working memory was calculated by averaging those of the 2-5th experiments, and the ability of working memory of each rat was calculated by averaging the experimental values in 3 days.
(§3) All results were expressed in mean±standard error. Comparison of latencies between groups in water maze experiment was performed using two-factor analysis of variance in replicate. Comparison between groups was performed using post hoc LSD or Turkey test. Platform exploration test in water maze experiment, working memory test and biochemical assay were analyzed using one-factor analysis of variance. A difference was considered significant when p<0.05.

[5] = tested on: glutathione peroxidase (GSH-Px); assay: GSH-Px activity in cortex and hippocampus after continuous perfusion of Aβ (1-40); details: Aβ (1-40) rats; for GSH-PX, hippocampus / GSH-PX, cortex: n = 7; for GSH-PX, hippocampus: model 9.32 ± 1.01, sham 16.19 ± 1.19; for GSH-PX, cortex: model 11.18 ± 1.32, sham 15.86 ± 0.91
Experimental: as §1, §2
Malondialdehyde (MDA) and glutathione peroxidase (GSH-Px) were determined by the same assays as above.
as §3

## CCCC[C@@H]1OC(=O)c2ccccc21 [L-NBP, L-n-butylphthalide]
[1]; 2-VO rats, p<0.05
  SOD activity in hippocampus after treatment (in words): returned close to the normal level
[1]; hypoperfused rats, n = 7-9, solvent control 81.16 ± 6.84, sham 57.90 ± 7.41, p<0.05 vs solvent control
  SOD activity, hippocampus: 57.60 ± 3.86 NU/mg protein
[1]; hypoperfused rats, n = 7-9, solvent control 114.42 ± 7.82, sham 100.07 ± 3.64
  SOD activity, cortex: 98.84 ± 5.53 NU/mg protein
Malondialdehyde (MDA); 2-VO rats, vs model group, p<0.001
  reduction of MDA content in cortex: 20.7%
Malondialdehyde (MDA); hypoperfused rats, n = 7-9, solvent control 3.63 ± 0.45, sham 3.03 ± 0.12
  MDA content, hippocampus: 3.42 ± 0.12 nmol/mg protein
Malondialdehyde (MDA); hypoperfused rats, n = 7-9, solvent control 3.91 ± 0.22, sham 3.13 ± 0.10, p<0.001 vs solvent control
  MDA content, cortex: 3.10 ± 0.09 nmol/mg protein
[2]; continuous administration for 16 days, 2-VO rats, p<0.05
  improvement of cortical ChAT activity as compared with the model group: 37.1%
[2]; hypoperfused rats, n = 7-9, solvent control 65.6 ± 15.1, p<0.05 vs solvent control
  ChAT activity, cortex: 104.3 ± 8.2 % of sham
[2]; hypoperfused rats, n = 7-9, solvent control 102.6 ± 15.1
  ChAT activity, hippocampus: 110.0 ± 13.5 % of sham
[3]; 10 mg/kg
  number of GFAP-positive astrocytes (immunohistochemistry): greatly reduced
[3]; 10 mg/kg extended administration
  sparse substantia alba / vacuola in optic tracts (K-B staining): significant reduction of vacuola
[3]; 10 mg/kg, 5 weeks after ligation
  neuronal damage in cortex and hippocampal CA1 induced by hypoperfusion (H-E staining): could be significantly ameliorated
[4]; 10 mg/kg oral
  search strategy after 5 days of training: changed from peripheral and random to purposive and linear
  latency after 5 days of training: 27.28 ± 6.42 s
[4]; 30 mg/kg oral
  search strategy after 5 days of training: changed from peripheral and random to purposive and linear
  latency after 5 days of training: 25.88 ± 5.51 s
[4]; 10 and 30 mg/kg, days 14-16 after Aβ (1-40), model 14.05±1.88 s, sham 9.15±0.91 s, p<0.01
  working memory (latency in 2-5th experiments): can significantly improve the working memory ability in a dose-dependent way; also recorded: could improve the working memory of rats in a dose-dependent manner
[4]; continuous perfusion of Aβ (1-40) into lateral ventricle, rats, Morris' water maze
  amelioration of impaired short-term memory and stereotaxic memory (overall conclusion): could significantly ameliorate
[5]; 10 mg/kg
  GSH-Px activity after treatment (in words): could also increase the activity of GSH-Px, but with no statistically significant difference
  GSH-PX, hippocampus: 12.73 ± 1.34 U/mg protein
  GSH-PX, cortex: 11.73 ± 0.53 U/mg protein
[5]; 30 mg/kg, p<0.01 vs model
  GSH-PX, hippocampus: 18.91 ± 1.16 U/mg protein
  GSH-PX, cortex: 15.40 ± 1.03 U/mg protein
[5]; 30 mg/kg, p<0.01
  GSH-Px activity after treatment (in words): increased significantly
[5]
  GSH-Px activity and MDA content (overall conclusion): could improve GSH-Px activity and reduce MDA content
